Here are results for 29 compounds from patent publication US20220356174A1, “PYRIDIN-2-ONE COMPOUNDS USEFUL AS SMARCA2 ANTAGONISTS” (Epizyme, Inc., priority 2018, published 2022).

Bounds are passed on as bounds.

FL-SMARCA4, sequence (P51532 whole entry): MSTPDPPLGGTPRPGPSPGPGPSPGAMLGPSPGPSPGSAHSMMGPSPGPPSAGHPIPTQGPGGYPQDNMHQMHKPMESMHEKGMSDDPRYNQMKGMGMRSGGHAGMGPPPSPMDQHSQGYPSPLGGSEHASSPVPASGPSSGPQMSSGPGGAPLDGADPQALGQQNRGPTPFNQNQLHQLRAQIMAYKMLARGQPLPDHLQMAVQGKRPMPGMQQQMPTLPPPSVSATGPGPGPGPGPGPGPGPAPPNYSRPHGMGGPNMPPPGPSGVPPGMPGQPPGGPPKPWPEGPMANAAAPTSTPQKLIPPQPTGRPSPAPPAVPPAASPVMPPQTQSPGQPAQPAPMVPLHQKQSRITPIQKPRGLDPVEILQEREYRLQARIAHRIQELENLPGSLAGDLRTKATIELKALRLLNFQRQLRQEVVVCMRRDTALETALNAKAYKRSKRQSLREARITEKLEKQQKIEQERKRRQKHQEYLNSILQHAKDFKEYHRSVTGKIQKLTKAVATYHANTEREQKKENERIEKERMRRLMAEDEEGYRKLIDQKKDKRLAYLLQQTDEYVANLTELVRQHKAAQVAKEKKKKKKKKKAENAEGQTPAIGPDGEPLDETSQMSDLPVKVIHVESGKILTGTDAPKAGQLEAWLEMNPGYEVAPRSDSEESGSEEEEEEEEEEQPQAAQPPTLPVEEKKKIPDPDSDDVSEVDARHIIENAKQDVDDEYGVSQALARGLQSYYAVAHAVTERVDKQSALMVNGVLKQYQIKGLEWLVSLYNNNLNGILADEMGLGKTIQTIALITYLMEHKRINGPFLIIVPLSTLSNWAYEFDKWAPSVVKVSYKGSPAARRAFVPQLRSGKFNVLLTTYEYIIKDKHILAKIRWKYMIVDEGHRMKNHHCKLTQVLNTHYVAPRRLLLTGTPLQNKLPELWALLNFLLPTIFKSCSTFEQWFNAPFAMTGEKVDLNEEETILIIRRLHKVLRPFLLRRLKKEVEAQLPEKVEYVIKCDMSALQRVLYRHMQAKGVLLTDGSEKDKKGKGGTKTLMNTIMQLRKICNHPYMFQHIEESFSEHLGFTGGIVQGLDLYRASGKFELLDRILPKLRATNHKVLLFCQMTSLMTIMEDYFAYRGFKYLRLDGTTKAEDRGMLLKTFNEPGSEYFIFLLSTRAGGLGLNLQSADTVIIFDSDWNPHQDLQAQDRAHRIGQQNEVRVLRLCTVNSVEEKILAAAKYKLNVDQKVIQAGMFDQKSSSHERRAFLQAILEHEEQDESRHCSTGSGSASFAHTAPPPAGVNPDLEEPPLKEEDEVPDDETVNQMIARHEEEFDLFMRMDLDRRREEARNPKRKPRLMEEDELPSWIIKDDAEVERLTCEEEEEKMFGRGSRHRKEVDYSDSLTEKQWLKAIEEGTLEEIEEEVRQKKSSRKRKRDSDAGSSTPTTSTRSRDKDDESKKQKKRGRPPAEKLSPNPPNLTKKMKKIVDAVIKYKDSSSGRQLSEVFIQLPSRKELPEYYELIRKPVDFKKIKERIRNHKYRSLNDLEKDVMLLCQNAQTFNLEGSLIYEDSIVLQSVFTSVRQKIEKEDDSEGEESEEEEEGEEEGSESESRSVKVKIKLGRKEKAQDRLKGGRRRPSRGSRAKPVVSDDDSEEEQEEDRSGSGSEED

One assay has as its target FL-SMARCA4 (Homo sapiens, UniProt P51532). The assay can be described thus: SMARCA4 ATPase activity assay (ADP-Glo, chicken mononucleosome substrate). As to conditions: FL-SMARCA4 IC50, Table 3.2; ATPase assay, enzyme 5 nM, ATP 250 uM, chicken mononucleosome 10 nM, 30 min preincubation.
As a reminder, the IC50 is the midpoint of a concentration-inhibition curve. Higher therefore signals lower potency. The compound `Cn1c(C(=O)Nc2ccc(=O)n(CC(F)(F)F)c2)cc(Cl)c1Cl` [Compound 53] displayed an IC50 of 16.7 µM.
Same read-out and setting: to `CCn1cc(NC(=O)c2nc(Cl)c(Cl)s2)ccc1=O` [Compound 64] belongs over 50 µM; to `CCn1cc(NC(=O)c2nnc(Cl)s2)ccc1=O` [Compound 72], over 50 µM; to `CCn1cc(NC(=O)c2cc(Cl)n(C)c2Cl)ccc1=O` [Compound 96], over 50 µM.
On the same count and under the same terms, to `CCn1cc(NC(=O)c2cc(Cl)c(Cl)s2)cc(N(C)C)c1=O` [Compound 149] belongs over 50 µM.
The same measure, in the same setting: to `CCn1cc(NC(=O)c2cc(CN(C)C)cs2)ccc1=O` [Compound 98] belongs over 50 µM; to `CCn1cc(NC(=O)c2cc(Cl)cs2)ccc1=O` [Compound 44], over 50 µM.
Regarding `CCn1cc(NC(=O)c2cnn(C)c2)ccc1=O` [Compound 92], the IC50 was over 50 µM.
The same measure, in the same setting: to `CCn1cc(NC(=O)c2cc(Cl)c(C#N)s2)ccc1=O` [Compound 86] belongs 0.669 µM.
As to `CCn1cc(NC(=O)c2ccc(Br)n2C)ccc1=O` [Compound 19], the IC50 is over 50 µM.
On the same count and under the same terms, to `CC(=O)Nc1sc(C(=O)Nc2cc(F)c(=O)n(CCF)c2)cc1Cl` [Compound 315] belongs over 50 µM; to `Cn1c(C(=O)Nc2cc(C#N)c(=O)n(CCF)c2)cc(Cl)c1C#N` [Compound 204], 5.78 µM; to `CCn1cc(C(=O)Nc2cc(Cl)c(Cl)s2)ccc1=O` [Compound 79], over 50 µM.
Still for that read-out and setting: to `COCCn1cc(NC(=O)c2cc(Cl)c(Cl)s2)ccc1=O` [Compound 87] belongs over 50 µM; to `CCn1cc(NC(=O)c2cnc(C#N)s2)ccc1=O` [Compound 206], 0.649 µM; to `O=C(Nc1cc(F)c(=O)n(CC(F)F)c1)c1cc(Cl)c(C(F)F)s1` [Compound 296], 0.52 µM.
The same measure, in the same setting: then `N#Cc1cc(C(=O)Nc2ccc(=O)n(CC(F)(F)F)c2)sc1C#N` [Compound 198], with 0.283 µM; and `Cn1c(C(=O)Nc2cc(Cl)c(=O)n(CC(F)(F)F)c2)cnc1Cl` [Compound 195], with 29.8 µM; and `COCCn1cc(NC(=O)c2nc(C)n(-c3ccccc3Cl)n2)ccc1=O` [Compound 11], with over 50 µM.
With `O=C(Nc1cc(F)c(=O)n(CCF)c1)c1ccc(-c2ccn[nH]2)s1` [Compound 312], the IC50 was over 50 µM.

The same assay, now with this note: FL-SMARCA4 IC>50, Table 3c.2; ATPase assay, enzyme 5 nM, ATP 250 uM, chicken mononucleosome 10 nM, 30 min preincubation.
For the compound `O=C(Nc1cc(-c2cnco2)c(=O)n(CC(F)F)c1)c1cc(Cl)c(C(F)(F)F)s1` [Compound 101c], the IC50 was over 50 µM.
Compound `CC(C)(C)OC(=O)N1CC(C#Cc2cc(C(=O)Nc3cc(F)c(=O)n(CC(F)F)c3)sc2Cl)C1` [Compound 10c] displayed an IC50 of 7.13 µM.
On to `CNC(=O)c1cccc(N2CC(c3cc(C(=O)Nc4cc(F)c(=O)n(CC(F)F)c4)sc3Cl)C2)c1` [Compound 176c], for which half-maximal inhibition (IC50) required 9.19 µM.
For `C[S+]([O-])c1cc(C(=O)Nc2cc(F)c(=O)n(CC(F)F)c2)sc1Cl` (stereo not shown) [Compound 2c], the IC50 was over 50 µM.
The same measure, in the same setting: then `O=C(Nc1cc(F)c(=O)n(CC(F)F)c1)c1cc(C2COC2)cs1` [Compound 36c], with over 50 µM; and `NCCn1cc(NC(=O)c2cc(F)c(Cl)s2)cc(F)c1=O` [Compound 32c], with 12.5 µM; and `C[S+]([O-])c1cc(NC(=O)c2cc(F)c(Cl)s2)cn(CC(F)F)c1=O` (stereo not shown) [Compound 8c], with over 50 µM.
The compound `O=C(Nc1cc(F)c(=O)n(CC(F)F)c1)c1cc(C#Cc2cn3ccccc3n2)c(Cl)s1` [Compound 6c] yielded a half-inhibitory concentration (IC50) of 0.679 µM.
`O=C(Nc1cc(F)c(=O)n(CC(F)F)c1)c1cc(C2COC2)c(Cl)s1` [Compound 49c] had an IC50 of 16.8 µM.

In the next assay the target is T1, FL-SMARCA2 (full-length human SMARCA2 isoform 1) (Homo sapiens, UniProt P51531).
T1 construct: FLAG tag (YKDDDDK) (C); made in house; host or cells: Sf21 insect cells (baculovirus, pFastBacI)
T1 sequence (P51531 with tags, fused parts or gaps): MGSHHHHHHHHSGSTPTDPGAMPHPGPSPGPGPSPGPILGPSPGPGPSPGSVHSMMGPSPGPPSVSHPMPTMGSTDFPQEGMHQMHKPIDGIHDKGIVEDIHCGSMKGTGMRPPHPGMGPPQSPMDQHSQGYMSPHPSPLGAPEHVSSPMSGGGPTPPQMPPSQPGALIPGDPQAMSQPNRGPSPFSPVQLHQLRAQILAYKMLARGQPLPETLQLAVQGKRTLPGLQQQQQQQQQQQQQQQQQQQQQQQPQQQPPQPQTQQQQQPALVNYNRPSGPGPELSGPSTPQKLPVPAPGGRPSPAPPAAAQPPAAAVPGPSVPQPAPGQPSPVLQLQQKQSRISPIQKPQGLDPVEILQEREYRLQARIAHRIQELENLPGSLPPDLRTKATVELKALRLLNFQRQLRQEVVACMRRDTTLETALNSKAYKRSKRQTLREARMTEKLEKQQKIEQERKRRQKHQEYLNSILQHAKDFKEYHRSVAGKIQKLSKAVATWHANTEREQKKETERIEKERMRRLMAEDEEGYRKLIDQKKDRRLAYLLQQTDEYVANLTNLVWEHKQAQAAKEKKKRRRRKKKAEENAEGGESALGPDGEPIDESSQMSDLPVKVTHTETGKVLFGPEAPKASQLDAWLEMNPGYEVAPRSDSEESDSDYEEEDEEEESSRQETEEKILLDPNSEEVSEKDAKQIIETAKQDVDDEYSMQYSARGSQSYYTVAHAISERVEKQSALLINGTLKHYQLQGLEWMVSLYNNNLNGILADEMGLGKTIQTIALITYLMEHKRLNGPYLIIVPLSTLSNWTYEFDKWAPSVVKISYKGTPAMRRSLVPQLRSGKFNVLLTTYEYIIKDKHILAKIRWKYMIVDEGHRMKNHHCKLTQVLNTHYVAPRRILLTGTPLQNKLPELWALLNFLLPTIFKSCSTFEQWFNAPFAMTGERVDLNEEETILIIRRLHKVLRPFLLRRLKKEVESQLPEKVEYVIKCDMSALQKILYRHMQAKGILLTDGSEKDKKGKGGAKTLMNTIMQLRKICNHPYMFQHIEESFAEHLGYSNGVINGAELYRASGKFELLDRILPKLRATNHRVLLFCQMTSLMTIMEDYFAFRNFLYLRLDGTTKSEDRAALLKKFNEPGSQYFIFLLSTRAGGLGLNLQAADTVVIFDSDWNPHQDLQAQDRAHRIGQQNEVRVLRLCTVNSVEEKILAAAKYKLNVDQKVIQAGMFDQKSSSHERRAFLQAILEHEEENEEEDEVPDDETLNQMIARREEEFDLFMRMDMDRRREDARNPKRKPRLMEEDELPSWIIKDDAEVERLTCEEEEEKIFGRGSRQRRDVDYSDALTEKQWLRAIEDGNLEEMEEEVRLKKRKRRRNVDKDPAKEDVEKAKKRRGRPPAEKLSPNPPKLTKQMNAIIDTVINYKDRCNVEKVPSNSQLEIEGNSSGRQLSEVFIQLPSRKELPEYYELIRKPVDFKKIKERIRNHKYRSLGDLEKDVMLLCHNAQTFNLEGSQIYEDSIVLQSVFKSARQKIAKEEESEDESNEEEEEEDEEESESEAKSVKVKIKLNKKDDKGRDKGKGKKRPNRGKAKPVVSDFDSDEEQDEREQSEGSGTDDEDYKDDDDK
The assay can be described thus: SMARCA2 ATPase activity assay (ADP-Glo, chicken mononucleosome substrate). It counts as biochemical. Particulars: Table 3c.1; ATPase assay, enzyme 5 nM, ATP 250 uM, chicken mononucleosome 10 nM, 30 min preincubation.
The compound `O=C(Nc1cc(-c2cnco2)c(=O)n(CC(F)F)c1)c1cc(Cl)c(C(F)(F)F)s1` [Compound 101c] displayed an IC50 of over 50 µM.
Still for that read-out and setting: then `CC(C)(C)OC(=O)N1CC(C#Cc2cc(C(=O)Nc3cc(F)c(=O)n(CC(F)F)c3)sc2Cl)C1` [Compound 10c], with 3.35 µM.
With `CNC(=O)c1cccc(N2CC(c3cc(C(=O)Nc4cc(F)c(=O)n(CC(F)F)c4)sc3Cl)C2)c1` [Compound 176c], the 50% inhibitory concentration (IC50) was 9.19 µM.
On to `C[S+]([O-])c1cc(C(=O)Nc2cc(F)c(=O)n(CC(F)F)c2)sc1Cl` (stereo not shown) [Compound 2c], for which 24.6 µM corresponded to half-maximal inhibition (IC50).
Same read-out and setting: to `O=C(Nc1cc(F)c(=O)n(CC(F)F)c1)c1cc(C2COC2)cs1` [Compound 36c] belongs over 50 µM; to `NCCn1cc(NC(=O)c2cc(F)c(Cl)s2)cc(F)c1=O` [Compound 32c], 5.67 µM; to `C[S+]([O-])c1cc(NC(=O)c2cc(F)c(Cl)s2)cn(CC(F)F)c1=O` (stereo not shown) [Compound 8c], over 50 µM.
`O=C(Nc1cc(F)c(=O)n(CC(F)F)c1)c1cc(C#Cc2cn3ccccc3n2)c(Cl)s1` [Compound 6c] registered an IC50 of 0.901 µM.
Turning to `O=C(Nc1cc(F)c(=O)n(CC(F)F)c1)c1cc(C2COC2)c(Cl)s1` [Compound 49c], the midpoint of inhibition, the IC50, lay at 16.8 µM.

The same assay, now with this note: Table 3.1; ATPase assay, enzyme 5 nM, ATP 250 uM, chicken mononucleosome 10 nM, 30 min preincubation.
Compound `Cn1c(C(=O)Nc2ccc(=O)n(CC(F)(F)F)c2)cc(Cl)c1Cl` [Compound 53] gave an IC50 of 1.48 µM.
For `CCn1cc(NC(=O)c2nc(Cl)c(Cl)s2)ccc1=O` [Compound 64], the IC50 was over 50 µM.
Same read-out and setting: to `CCn1cc(NC(=O)c2nnc(Cl)s2)ccc1=O` [Compound 72] belongs 33.2 µM.
Compound `CCn1cc(NC(=O)c2cc(Cl)n(C)c2Cl)ccc1=O` [Compound 96] had an IC50 of over 50 µM.
On the same count and under the same terms, then `CCn1cc(NC(=O)c2cc(Cl)c(Cl)s2)cc(N(C)C)c1=O` [Compound 149], with over 50 µM.
The same measure, in the same setting: then `CCn1cc(NC(=O)c2cc(CN(C)C)cs2)ccc1=O` [Compound 98], with over 50 µM; and `CCn1cc(NC(=O)c2cc(Cl)cs2)ccc1=O` [Compound 44], with over 50 µM; and `CCn1cc(NC(=O)c2cnn(C)c2)ccc1=O` [Compound 92], with over 50 µM.
Still for that read-out and setting: to `CCn1cc(NC(=O)c2cc(Cl)c(C#N)s2)ccc1=O` [Compound 86] belongs 0.365 µM; to `CCn1cc(NC(=O)c2ccc(Br)n2C)ccc1=O` [Compound 19], over 50 µM; to `CC(=O)Nc1sc(C(=O)Nc2cc(F)c(=O)n(CCF)c2)cc1Cl` [Compound 315], over 50 µM.
Consider `Cn1c(C(=O)Nc2cc(C#N)c(=O)n(CCF)c2)cc(Cl)c1C#N` [Compound 204], for which inhibition was half-maximal at 1.26 µM (IC50).
On the same count and under the same terms, then `CCn1cc(C(=O)Nc2cc(Cl)c(Cl)s2)ccc1=O` [Compound 79], with over 50 µM; and `COCCn1cc(NC(=O)c2cc(Cl)c(Cl)s2)ccc1=O` [Compound 87], with over 50 µM; and `CCn1cc(NC(=O)c2cnc(C#N)s2)ccc1=O` [Compound 206], with 0.317 µM.
For `O=C(Nc1cc(F)c(=O)n(CC(F)F)c1)c1cc(Cl)c(C(F)F)s1` [Compound 296], the IC50 amounted to 0.094 µM.
Consider `N#Cc1cc(C(=O)Nc2ccc(=O)n(CC(F)(F)F)c2)sc1C#N` [Compound 198], for which the IC50 was 0.107 µM.
The same measure, in the same setting: then `Cn1c(C(=O)Nc2cc(Cl)c(=O)n(CC(F)(F)F)c2)cnc1Cl` [Compound 195], with 7.59 µM.
On the same count and under the same terms, to `COCCn1cc(NC(=O)c2nc(C)n(-c3ccccc3Cl)n2)ccc1=O` [Compound 11] belongs over 50 µM; to `O=C(Nc1cc(F)c(=O)n(CCF)c1)c1ccc(-c2ccn[nH]2)s1` [Compound 312], over 50 µM.
